What was measured:
5HT-Transporter = target: T1, 5HT-Transporter (Homo sapiens, UniProt P31645); assay: Binding experiment for the 5HT-transporter ([3H]paroxetine, human platelet membranes); conditions: [3H]paroxetine 0.5 nM, read-out: h-5HTT pIC50 (converted)
T1 construct: Human platelet membranes (Oceanix Biosciences Corporation, Hanover, Md., USA) were thawed; tissue Oceanix Biosciences Corporation, Hanover, Md., USA; host or cells: human platelet membranes
In short: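 Competition binding of [3H]paroxetine to human platelet membranes in Tris-HCl 50 mM, 120 mM NaCl, 5 mM KCl, with filtration and scintillation counting.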

hα2A receptor = target: T2, hα2A receptor (Homo sapiens, UniProt P08913); assay: Radioligand binding experiment for α2A-adrenoceptor ([3H]raulwolscine, CHO cell membranes); conditions: [3H]raulwolscine binding, read-out: h-α2A pIC50 (converted)
T2 construct: expressed in transfected cells; host or cells: CHO cells, stably transfected; membrane preparation
T2 sequence (P08913 1-465): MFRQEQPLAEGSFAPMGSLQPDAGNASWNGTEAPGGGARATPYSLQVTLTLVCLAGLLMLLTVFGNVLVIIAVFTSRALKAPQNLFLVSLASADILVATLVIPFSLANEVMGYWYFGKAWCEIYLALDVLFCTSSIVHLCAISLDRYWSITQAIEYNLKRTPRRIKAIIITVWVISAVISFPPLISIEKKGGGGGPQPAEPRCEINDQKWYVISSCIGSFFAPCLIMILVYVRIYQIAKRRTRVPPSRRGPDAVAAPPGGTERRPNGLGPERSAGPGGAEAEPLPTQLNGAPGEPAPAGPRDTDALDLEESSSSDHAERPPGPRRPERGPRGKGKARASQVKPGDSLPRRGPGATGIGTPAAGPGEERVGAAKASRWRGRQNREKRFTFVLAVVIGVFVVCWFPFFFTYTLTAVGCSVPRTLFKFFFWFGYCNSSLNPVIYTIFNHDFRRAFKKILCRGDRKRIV

hα2C receptor = target: T3, hα2C receptor (Homo sapiens, UniProt P18825); assay: Radioligand binding experiment for α2C-adrenoceptor ([3H]raulwolscine, CHO cell membranes); conditions: [3H]raulwolscine binding, read-out: h-α2C pIC50 (converted)
T3 construct: expressed in transfected cells; host or cells: CHO cells, stably transfected; membrane preparation
T3 sequence (P18825 1-462): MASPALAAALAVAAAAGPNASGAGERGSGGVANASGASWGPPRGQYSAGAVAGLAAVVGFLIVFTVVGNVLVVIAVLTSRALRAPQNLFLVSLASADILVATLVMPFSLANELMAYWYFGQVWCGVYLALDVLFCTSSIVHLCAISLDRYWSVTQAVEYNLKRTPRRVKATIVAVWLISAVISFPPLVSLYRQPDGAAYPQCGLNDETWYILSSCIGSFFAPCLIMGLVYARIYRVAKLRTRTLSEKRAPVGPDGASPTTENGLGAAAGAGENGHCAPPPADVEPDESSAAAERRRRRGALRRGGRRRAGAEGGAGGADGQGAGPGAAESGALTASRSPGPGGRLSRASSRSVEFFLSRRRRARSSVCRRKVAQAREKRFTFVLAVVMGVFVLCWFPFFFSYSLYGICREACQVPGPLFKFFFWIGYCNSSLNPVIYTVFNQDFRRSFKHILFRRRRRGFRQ

T1 sequence (P31645 whole entry): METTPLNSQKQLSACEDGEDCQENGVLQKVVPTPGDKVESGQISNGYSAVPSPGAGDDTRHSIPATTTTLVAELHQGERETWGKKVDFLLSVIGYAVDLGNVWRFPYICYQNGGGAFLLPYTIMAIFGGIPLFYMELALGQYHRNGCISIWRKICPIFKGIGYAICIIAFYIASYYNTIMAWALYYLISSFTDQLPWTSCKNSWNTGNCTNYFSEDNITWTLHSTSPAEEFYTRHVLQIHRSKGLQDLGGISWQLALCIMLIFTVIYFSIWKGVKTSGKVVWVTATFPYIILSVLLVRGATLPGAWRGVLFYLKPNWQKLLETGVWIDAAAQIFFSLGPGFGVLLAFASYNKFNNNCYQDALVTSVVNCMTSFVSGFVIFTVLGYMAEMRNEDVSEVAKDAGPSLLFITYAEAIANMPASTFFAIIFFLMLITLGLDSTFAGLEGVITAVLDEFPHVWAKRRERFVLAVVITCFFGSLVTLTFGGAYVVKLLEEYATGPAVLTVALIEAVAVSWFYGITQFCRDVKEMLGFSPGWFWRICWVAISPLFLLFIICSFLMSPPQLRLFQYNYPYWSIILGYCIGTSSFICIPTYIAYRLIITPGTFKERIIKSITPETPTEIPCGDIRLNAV

IC50 (5HT-Transporter) [nM]	IC50 (hα2A receptor) [nM]	IC50 (hα2C receptor) [nM]	Compound
3160	63.1	63.1	C/C(=C\c1ccccc1)CN1CCN(c2nccn(Cc3ccccc3)c2=O)CC1 [12-1]
1260	200	63.1	C/C(=C\c1ccccc1)CN1CCN(c2nccn(CCCc3ccccc3)c2=O)CC1 [12-2]
1260	398	126	C/C(=C\c1ccccc1)CN1CCN(c2nccn(C/C=C/c3ccccc3)c2=O)CC1 [12-3]
3980	316	50.1	C/C(=C\c1ccccc1)CN1CCN(c2nccn(CC(=O)c3ccccc3)c2=O)CC1 [12-5]
2000	398	251	C/C(=C\c1ccccc1)CN1CCN(c2nccn(CC(=O)c3ccc(-c4ccccc4)cc3)c2=O)CC1 [12-6]
1000	126	126	C/C(=C\c1ccccc1)CN1CCN(c2nccn(Cc3ccc4ccccc4c3)c2=O)CC1 [12-7]
6310	50.1	63.1	C/C(=C\c1ccccc1)CN1CCN(c2nccn(Cc3ccco3)c2=O)CC1 [13-1]
3980	79.4	39.8	C/C(=C\c1ccccc1)CN1CCN(c2nccn(Cc3ccc(Cl)s3)c2=O)CC1 [13-2]
6310	316	79.4	C/C(=C\c1ccccc1)CN1CCN(c2nccn(Cc3csc(C)n3)c2=O)CC1 [13-3]
398	63.1	63.1	COc1ccc(-c2nnc(Cn3ccnc(N4CCN(C/C(C)=C/c5ccccc5)CC4)c3=O)o2)cc1 [13-4]
3980	158	39.8	C/C(=C\c1ccccc1)CN1CCN(c2ncc[nH]c2=O)CC1 [14-1]
6310	126	50.1	CCCn1ccnc(N2CCN(C/C(C)=C/c3ccccc3)CC2)c1=O [14-2]
7940	398	158	C/C(=C\c1ccccc1)CN1CCN(c2nccn(CC3CCCCC3)c2=O)CC1 [14-3]
> 10000	398	63.1	C/C(=C\c1ccccc1)CN1CCN(c2nccn(CC(=O)C(C)(C)C)c2=O)CC1 [14-4]
> 10000	1580	158	CN(C)CCn1ccnc(NC2CCN(C/C=C/c3ccccc3)CC2)c1=O [16-1]
> 10000	2510	316	CN(C)C(=O)Cn1ccnc(NC2CCN(C/C=C/c3ccccc3)CC2)c1=O [16-3]
1260	398	39.8	CC(C)(C)OC(=O)NCCCn1ccnc(NC2CCN(C/C=C/c3ccccc3)CC2)c1=O [16-4]
1260	794	398	CC(C)(C)OC(=O)NCc1ccc(Cn2ccnc(NC3CCN(C/C=C/c4ccccc4)CC3)c2=O)cc1 [16-5]
> 10000	794	63.1	O=c1c(NC2CCN(C/C=C/c3ccccc3)CC2)nccn1CCN1CCCCC1 [16-6]
> 10000	3980	398	O=c1c(NC2CCN(C/C=C/c3ccccc3)CC2)nccn1CCN1CCOCC1 [16-7]
200	501	12.6	O=C1c2ccccc2C(=O)N1CCCn1ccnc(NC2CCN(C/C=C/c3ccccc3)CC2)c1=O [16-8]
> 10000	3160	631	COCCn1ccnc(NC2CCN(C/C=C/c3ccccc3)CC2)c1=O [16-9]
> 10000	1000	200	COC(=O)Cn1ccnc(NC2CCN(C/C=C/c3ccccc3)CC2)c1=O [16-10]
631	794	158	CCOC(=O)CCCCn1ccnc(NC2CCN(C/C=C/c3ccccc3)CC2)c1=O [16-11]
2510	794	316	CSCCn1ccnc(NC2CCN(C/C=C/c3ccccc3)CC2)c1=O [16-12]
794	794	200	O=c1c(NC2CCN(C/C=C/c3ccccc3)CC2)nccn1CCc1ccccc1 [16-14]
794	631	158	O=c1c(NC2CCN(C/C=C/c3ccccc3)CC2)nccn1Cc1ccccc1Br [16-15]

More lines, now with the values behind:

Compound	IC50 (5HT-Transporter) [nM]	IC50 (hα2A receptor) [nM]	IC50 (hα2C receptor) [nM]
C/C(=C\c1ccccc1)CN1CCC(Nc2nccn(-c3cnc4ccccc4c3)c2=O)CC1 [6-16]	316	63.1	15.8
C/C(=C\c1ccccc1)CN1CCC(Nc2nccn(Cc3ccc4ccccc4n3)c2=O)CC1 [6-17]	316	79.4	15.8
CCn1ccnc(NC2CCN(C/C(C)=C/c3ccccc3)CC2)c1=O [7-3]	3980	63.1	15.8
CCCn1ccnc(NC2CCN(C/C(C)=C/c3ccccc3)CC2)c1=O [7-4]	631	25.1	12.6
CCCCCn1ccnc(NC2CCN(C/C(C)=C/c3ccccc3)CC2)c1=O [7-5]	251	100	31.6
C/C(=C\c1ccccc1)CN1CCC(Nc2nccn(CC3CCCCC3)c2=O)CC1 [7-6]	1580	200	50.1
C/C(=C\c1ccccc1)CN1CCC(Nc2nccn(CC(=O)C(C)(C)C)c2=O)CC1 [7-8]	> 10000	126	12.6
C/C(=C\c1ccccc1)CN1CCC(Nc2nccn(CC(=O)C(C)(C)C)c2=O)CC1 [7-9]	5010	79.4	7.94
C/C(=C\c1ccccc1)CN1CCC(Nc2nccn(CC(=O)C34CC5CC(CC(C5)C3)C4)c2=O)CC1 [7-10]	1260	50.1	10
C/C(=C\c1ccccc1)CN1CCN(c2nccn(Cc3ccc(CN)cc3)c2=O)CC1 [8-1]	1000	39.8	12.6
C/C(=C\c1ccccc1)CN1CCN(c2nccn(CC(=O)N(C)C)c2=O)CC1 [8-2]	> 10000	1580	158
C/C(=C\c1ccccc1)CN1CCN(c2nccn(CCCNC(=O)OC(C)(C)C)c2=O)CC1 [8-3]	2510	398	79.4
C/C(=C\c1ccccc1)CN1CCN(c2nccn(Cc3ccc(CNC(=O)OC(C)(C)C)cc3)c2=O)CC1 [8-4]	1260	158	79.4
C/C(=C\c1ccccc1)CN1CCN(c2nccn(CCN3CCOCC3)c2=O)CC1 [9-2]	7940	1000	200
COCCCn1ccnc(N2CCN(C/C(C)=C/c3ccccc3)CC2)c1=O [10-1]	7940	316	79.4
C/C(=C\c1ccccc1)CN1CCN(c2nccn(CCOc3ccccc3)c2=O)CC1 [10-2]	1260	251	100
C/C(=C\c1ccccc1)CN1CCN(c2nccn(CCOCc3ccccc3)c2=O)CC1 [10-3]	1260	398	79.4
CSCCn1ccnc(N2CCN(C/C(C)=C/c3ccccc3)CC2)c1=O [11-1]	6310	316	79.4
C/C(=C\c1ccccc1)CN1CCC(N(C)c2nccn(Cc3ccc(CN)cc3)c2=O)CC1 [15-1]	501	25.1	10
C/C(=C\c1ccccc1)CN1CCC(N(C)c2nccn(Cc3ccc(CN(C)C)cc3)c2=O)CC1 [15-2]	1000	31.6	3.16
C/C(=C\c1ccccc1)CN1CCC(N(C)c2nccn(CCN3CCCCC3)c2=O)CC1 [15-3]	5010	100	20
C/C(=C\c1ccccc1)CN1CCC(N(C)c2nccn(CCCO)c2=O)CC1 [15-4]	2510	63.1	39.8
COCCOCCn1ccnc(N(C)C2CCN(C/C(C)=C/c3ccccc3)CC2)c1=O [15-5]	2000	126	39.8
C/C(=C\c1ccccc1)CN1CCC(N(C)c2nccn(CC3CCCCO3)c2=O)CC1 (stereo not drawn) [15-7]	3160	79.4	39.8
